The text below walks through data of patent publication US12492173B2, “Herbicidal substituted N-tetrazolyl aryl carboxamides” (Bayer Aktiengesellschaft, priority 2019, dated 2025).

What all share (assay type): in vivo
The test system of one experiment is Echinochloa crus-galli. In words: Pre-emergence herbicidal action, ECHCG. Also noted: key to Herbicidal action against ECHCG: % activity: 100 = plants have died, 0 = like control plants. The following applies: for herbicidal activity ECHCG: scored visually after 3 weeks vs untreated controls (100% = plants have died); for Herbicidal action against ECHCG: comparative experiment. A digest of the protocol: (§1)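 Weed seeds sown in sandy loam and covered; WP or EC formulations applied to soil surface as aqueous suspension or emulsion at 600 to 800 l/ha with 0.2% wetting agent. Greenhouse-grown, with damage scored visually after 3 weeks versus untreated controls (0% = like control, 100% = plants dead).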

Another experiment relates to Stellaria media. In words: Pre-emergence herbicidal action, STEME. Further details: key to Herbicidal action against STEME: % activity: 100 = plants have died, 0 = like control plants. The following applies: for herbicidal activity STEME: scored visually after 3 weeks vs untreated controls (100% = plants have died). A digest of the protocol: as §1
Another experiment has as its system Alopecurus myosuroides. In words: Post-emergence herbicidal action, ALOMY. Further details: key: % herbicidal action vs untreated; 100 = plants died, 0 = like control. The following applies: for Herbicidal action against ALOMY: comparative experiment. Put shortly: (§2)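 Greenhouse weeds grown in sandy loam were sprayed at the one-leaf stage, 2–3 weeks after sowing, with WP or EC formulations at 600–800 l/ha water plus 0.2% wetting agent. Damage scored visually about 3 weeks later, in percent against untreated controls (100% = plants dead).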

Another experiment deals with Pharbitis purpurea. In words: Post-emergence herbicidal action, PHBPU. Put shortly: as §2
For another experiment, the system named is Avena fatua. In words: Post-emergence herbicidal action, AVEFA. Also noted: key: % herbicidal action vs untreated; 100 = plants died, 0 = like control. Put shortly:
as §2

For the next experiment, the system named is Abutilon theophrasti. Kind of experiment: Post-emergence herbicidal action, ABUTH. Also noted: key: % herbicidal action vs untreated; 100 = plants died, 0 = like control. Put shortly:
as §2

The mark [1] stands for this setting: comparative experiment, post-emergence, 20 g of a.i./ha.

In the case of `CSCc1c(Cl)ccc(C(=O)Nc2nnnn2C)c1Cl` [Example 1-559], in the experiment with Echinochloa crus-galli (dosage 320 g/ha), the “herbicidal action ECHCG” value was 100%. Further, in the experiment on Stellaria media (dosage 320 g/ha), the “herbicidal action STEME” value is recorded as 90%. Moreover, in the experiment with Alopecurus myosuroides (post-emergence, dosage 80 g/ha), the “herbicidal action ALOMY” value is listed as 90%. Moreover, the “herbicidal action PHBPU” value with Pharbitis purpurea (post-emergence, dosage 80 g/ha) is 100%. In addition, the “herbicidal action AVEFA” value in the experiment with Avena fatua (post-emergence, dosage 80 g/ha) turned out to be 100%. Further, the “herbicidal action ABUTH” value in the experiment on Abutilon theophrasti (post-emergence, dosage 80 g/ha) was found to be 90%.
Take `Cn1nnnc1NC(=O)c1ccc(C(F)(F)F)c(CS(=O)(=O)CC2CC2)c1Cl` [Example 1-316]: in the experiment with Echinochloa crus-galli (dosage 320 g/ha), the “herbicidal activity ECHCG” value was 100%. In the experiment on Stellaria media (dosage 320 g/ha), the “herbicidal activity STEME” value is given as 100%. Moreover, the “herbicidal action ALOMY” value in the experiment on Alopecurus myosuroides (Dosage 80 g/ha) was 90. Also, in the experiment on Pharbitis purpurea (Dosage 80 g/ha), the “herbicidal action PHBPU” value was 90. The “herbicidal action AVEFA” value in the experiment with Avena fatua (Dosage 80 g/ha) is recorded as 100. Further, in the experiment on Abutilon theophrasti (Dosage 80 g/ha), the “herbicidal action ABUTH” value was 100.
On to `CSCc1c(I)ccc(C(=O)Nc2nnnn2C)c1Cl` [Example 1-362], for which the “Herbicidal action against ECHCG” value in the experiment on Echinochloa crus-galli (20 g of a.i./ha) is given as 80. Moreover, the “herbicidal activity ECHCG” value in the experiment with Echinochloa crus-galli (dosage 320 g/ha) is reported as 100%. Besides, the “Herbicidal action against STEME” value with Stellaria media (comparative experiment, 20 g of a.i./ha) was 90. Besides, the “herbicidal activity STEME” value with Stellaria media (dosage 320 g/ha) came to 100%. Besides, the “Herbicidal action against ALOMY” value with Alopecurus myosuroides (post-emergence, 5 g of a.i./ha) came out at 70. Also, the “herbicidal action ALOMY” value in the experiment on Alopecurus myosuroides (post-emergence, dosage 80 g/ha) is 90%. Further, the “herbicidal action PHBPU” value in the experiment on Pharbitis purpurea (post-emergence, dosage 80 g/ha) is 100%. Also, the “herbicidal action AVEFA” value in the experiment on Avena fatua (post-emergence, dosage 80 g/ha) was found to be 100%. For the same molecule, in the experiment with Abutilon theophrasti (post-emergence, dosage 80 g/ha), the “herbicidal action ABUTH” value was 100%.
Regarding `CCn1nnnc1NC(=O)c1ccc(C(F)F)c(CS(C)(=O)=O)c1Cl` [Example 2-322], the “herbicidal activity ECHCG” value in the experiment on Echinochloa crus-galli (dosage 320 g/ha) is listed as 100%. Further, the “herbicidal activity STEME” value in the experiment on Stellaria media (dosage 320 g/ha) is on record as 100%. Also, the “herbicidal action ALOMY” value in the experiment on Alopecurus myosuroides (post-emergence, dosage 80 g/ha) was found to be 80%. In addition, the “herbicidal action PHBPU” value in the experiment on Pharbitis purpurea (post-emergence, dosage 80 g/ha) was 90%. In addition, in the experiment on Avena fatua (post-emergence, dosage 80 g/ha), the “herbicidal action AVEFA” value was 80%. Moreover, the “herbicidal action ABUTH” value in the experiment on Abutilon theophrasti (post-emergence, dosage 80 g/ha) amounted to 100%.
`CCn1nnnc1NC(=O)c1ccc(C(F)(F)F)c(CS(=O)(=O)CC)c1Br` [Example 2-385]: the “herbicidal activity ECHCG” value with Echinochloa crus-galli (dosage 320 g/ha) came out at 100%. Further, the “herbicidal activity STEME” value with Stellaria media (dosage 320 g/ha) amounted to 100%. The “herbicidal action ALOMY” value in the experiment on Alopecurus myosuroides (post-emergence, dosage 80 g/ha) is listed as 80%. In the experiment on Pharbitis purpurea (post-emergence, dosage 80 g/ha), the “herbicidal action PHBPU” value stood at 80%. The “herbicidal action AVEFA” value in the experiment on Avena fatua (post-emergence, dosage 80 g/ha) was 90%. Besides, the “herbicidal action ABUTH” value in the experiment with Abutilon theophrasti (post-emergence, dosage 80 g/ha) is given as 100%.
`CCn1nnnc1NC(=O)c1ccc(C(F)F)c(C[S+]([O-])CC)c1Cl` (stereo not shown) [Example 2-324]: the “herbicidal activity ECHCG” value in the experiment on Echinochloa crus-galli (dosage 320 g/ha) is on record as 100%. Further, in the experiment with Stellaria media (dosage 320 g/ha), the “herbicidal activity STEME” value is listed as 100%. Besides, the “herbicidal action ALOMY” value with Alopecurus myosuroides (post-emergence, dosage 80 g/ha) was 90%. In addition, the “herbicidal action PHBPU” value in the experiment on Pharbitis purpurea (post-emergence, dosage 80 g/ha) was found to be 100%. Further, the “herbicidal action AVEFA” value with Avena fatua (post-emergence, dosage 80 g/ha) stood at 100%. For the same molecule, in the experiment with Abutilon theophrasti (post-emergence, dosage 80 g/ha), the “herbicidal action ABUTH” value is 100%.
On to `CCn1nnnc1NC(=O)c1ccc(C(F)(F)F)c(CSC)c1Cl` [Example 2-296], for which the “herbicidal activity ECHCG” value in the experiment on Echinochloa crus-galli (dosage 320 g/ha) is 100%. Besides, the “herbicidal activity STEME” value in the experiment with Stellaria media (dosage 320 g/ha) amounted to 100%. Also, the “herbicidal action ALOMY” value in the experiment on Alopecurus myosuroides (post-emergence, dosage 80 g/ha) is 100%. Besides, in the experiment on Pharbitis purpurea (post-emergence, dosage 80 g/ha), the “herbicidal action PHBPU” value worked out at 90%. Moreover, the “herbicidal action AVEFA” value in the experiment on Avena fatua (post-emergence, dosage 80 g/ha) is given as 100%. The “herbicidal action ABUTH” value in the experiment on Abutilon theophrasti (post-emergence, dosage 80 g/ha) stood at 100%.
On to `CCn1nnnc1NC(=O)c1ccc(C(F)(F)F)c(CSCCOC)c1Cl` [Example 2-305], for which the “herbicidal activity ECHCG” value in the experiment on Echinochloa crus-galli (dosage 320 g/ha) is given as 100%. In addition, the “herbicidal activity STEME” value with Stellaria media (dosage 320 g/ha) amounted to 100%. For the same molecule, the “herbicidal action ALOMY” value in the experiment with Alopecurus myosuroides (post-emergence, dosage 80 g/ha) stood at 100%. Besides, the “herbicidal action PHBPU” value in the experiment with Pharbitis purpurea (post-emergence, dosage 80 g/ha) turned out to be 100%. Also, the “herbicidal action AVEFA” value with Avena fatua (post-emergence, dosage 80 g/ha) is 80%. Further, the “herbicidal action ABUTH” value with Abutilon theophrasti (post-emergence, dosage 80 g/ha) was 100%.
Take `CCSCc1c(C(F)(F)F)ccc(C(=O)Nc2nnnn2C)c1Br` [Example 1-383]: in the experiment with Echinochloa crus-galli (80 g of a.i./ha), the “Herbicidal action against ECHCG” value amounted to 100. Moreover, the “herbicidal activity ECHCG” value in the experiment on Echinochloa crus-galli (dosage 320 g/ha) came out at 100%. In addition, in the experiment with Stellaria media (dosage 320 g/ha), the “herbicidal activity STEME” value is 100%. In addition, the “Herbicidal action against ALOMY” value in the experiment with Alopecurus myosuroides (post-emergence, 20 g of a.i./ha) is given as 80. Also, the “herbicidal action ALOMY” value with Alopecurus myosuroides (post-emergence, dosage 80 g/ha) is reported as 100%. Moreover, the “herbicidal action PHBPU” value with Pharbitis purpurea (post-emergence, dosage 80 g/ha) came to 90%. Besides, the “Herbicidal action against AVEFA” value with Avena fatua (setting [1]) was 90. For the same molecule, in the experiment on Avena fatua (post-emergence, dosage 80 g/ha), the “herbicidal action AVEFA” value worked out at 90%. Besides, in the experiment on Abutilon theophrasti (setting [1]), the “Herbicidal action against ABUTH” value is listed as 90. Also, the “herbicidal action ABUTH” value in the experiment with Abutilon theophrasti (post-emergence, dosage 80 g/ha) amounted to 100%.
For the molecule `C=CCSCc1c(C(F)(F)F)ccc(C(=O)Nc2nnnn2CCC)c1Cl` [Example 3-308], the “herbicidal activity ECHCG” value in the experiment with Echinochloa crus-galli (dosage 320 g/ha) came out at 100%. The “herbicidal activity STEME” value in the experiment with Stellaria media (dosage 320 g/ha) came out at 100%. In the experiment on Alopecurus myosuroides (Dosage 80 g/ha), the “herbicidal action ALOMY” value is 100. Moreover, the “herbicidal action PHBPU” value with Pharbitis purpurea (Dosage 80 g/ha) is 90. In addition, in the experiment on Avena fatua (Dosage 80 g/ha), the “herbicidal action AVEFA” value is 100. Besides, in the experiment on Abutilon theophrasti (Dosage 80 g/ha), the “herbicidal action ABUTH” value was found to be 100.
Consider `CCSCc1c(C(F)(F)F)ccc(C(=O)Nc2nnnn2CC)c1Cl` [Example 2-299], for which the “herbicidal activity ECHCG” value in the experiment on Echinochloa crus-galli (dosage 320 g/ha) turned out to be 100%. In addition, the “herbicidal activity STEME” value with Stellaria media (dosage 320 g/ha) is 100%. Further, in the experiment with Alopecurus myosuroides (post-emergence, dosage 80 g/ha), the “herbicidal action ALOMY” value is listed as 90%. In addition, the “herbicidal action PHBPU” value with Pharbitis purpurea (post-emergence, dosage 80 g/ha) amounted to 90%. Moreover, in the experiment with Avena fatua (post-emergence, dosage 80 g/ha), the “herbicidal action AVEFA” value is on record as 100%. Besides, the “herbicidal action ABUTH” value in the experiment on Abutilon theophrasti (post-emergence, dosage 80 g/ha) turned out to be 100%.
Take `CCCn1nnnc1NC(=O)c1ccc(C(F)(F)F)c(C[S+](C)[O-])c1SC` (stereo not shown) [Example 3-162]: in the experiment with Echinochloa crus-galli (dosage 320 g/ha), the “herbicidal activity ECHCG” value came to 100%. Moreover, the “herbicidal activity STEME” value in the experiment with Stellaria media (dosage 320 g/ha) worked out at 100%. The “herbicidal action ALOMY” value with Alopecurus myosuroides (post-emergence, dosage 80 g/ha) is 90%. Also, the “herbicidal action PHBPU” value with Pharbitis purpurea (post-emergence, dosage 80 g/ha) came out at 90%. The “herbicidal action AVEFA” value in the experiment with Avena fatua (post-emergence, dosage 80 g/ha) is 90%. Moreover, in the experiment on Abutilon theophrasti (post-emergence, dosage 80 g/ha), the “herbicidal action ABUTH” value was found to be 100%.
